Test results taken from US8563714B2, “Bridged spiro [2.4] heptane derivatives as ALX receptor and/or FPRL2 agonists” (Actelion Pharmaceuticals Ltd., priority 2009, dated 2013).

Experiments:
human FPRL2 = target: T1, human FPRL2 (Homo sapiens, UniProt P25089); assay: Intracellular calcium measurements (FLIPR), agonistic activity in HEK293-hFPRL2-Gα16 cells; format: cell-based; conditions: Fluo-4 calcium FLIPR, normalized to GLY14-Humanin 100 nM
T1 construct: expressed in transfected cells; host or cells: HEK293 (HEK293-hFPRL2-Gα16)
T1 sequence (P25089 1-353): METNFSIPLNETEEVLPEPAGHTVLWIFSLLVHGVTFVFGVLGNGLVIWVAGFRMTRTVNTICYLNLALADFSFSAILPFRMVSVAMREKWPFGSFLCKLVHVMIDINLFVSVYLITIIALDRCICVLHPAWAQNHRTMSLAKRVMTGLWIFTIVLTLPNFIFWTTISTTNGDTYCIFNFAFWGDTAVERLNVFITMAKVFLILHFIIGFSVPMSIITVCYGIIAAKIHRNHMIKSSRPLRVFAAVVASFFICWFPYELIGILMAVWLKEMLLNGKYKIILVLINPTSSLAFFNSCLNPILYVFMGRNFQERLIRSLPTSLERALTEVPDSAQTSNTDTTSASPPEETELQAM
Procedure, shortened: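 Peak values after baseline subtraction are expressed relative to 100 nM Gly14-Humanin; compounds diluted in assay buffer from 10 mM DMSO stocks.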

human ALX receptor = target: T2, human ALX receptor (Homo sapiens, UniProt P25090); assay: Intracellular calcium measurements (FLIPR), agonistic activity in HEK293-hALXR-Gα16 cells; format: cell-based; conditions: Fluo-4 calcium FLIPR, normalized to WKYMVm 10 nM
T2 construct: expressed in transfected cells; host or cells: HEK293 (HEK293-hALXR-Gα16)
T2 sequence (P25090 1-351): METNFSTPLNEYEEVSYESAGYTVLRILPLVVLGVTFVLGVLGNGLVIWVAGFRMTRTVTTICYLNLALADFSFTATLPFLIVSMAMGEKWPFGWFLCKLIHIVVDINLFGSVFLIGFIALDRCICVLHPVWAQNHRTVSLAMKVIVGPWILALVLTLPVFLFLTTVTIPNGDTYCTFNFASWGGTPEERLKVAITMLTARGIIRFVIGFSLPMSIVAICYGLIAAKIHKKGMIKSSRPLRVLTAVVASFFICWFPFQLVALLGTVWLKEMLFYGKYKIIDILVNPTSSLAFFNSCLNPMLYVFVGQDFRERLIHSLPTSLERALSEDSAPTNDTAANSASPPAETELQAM
Procedure, shortened: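 HEK293 cells expressing hALXR and Gα16 were loaded with 1 μM Fluo-4 AM and 20 mM HEPES for 60 min at 37°C, then exposed to serially diluted compound. FLIPR fluorescence was read at ex 488/em 540 nm. Baseline-subtracted peak responses were normalized to 10 nM WKYMVm.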

Compound | EC50 (human FPRL2) [nM] | EC50 (human ALX receptor) [nM]
O=C(NCCCCN1CCCC1)[C@H]1[C@H](C(=O)Nc2nc3ccc(Cl)cc3s2)[C@@H]2C=C[C@H]1C21CC1 (racemic) [Example 154, (5R*)—N^5-(6-Chloro-benzothiazol-2-yl)-(6R*)—N^6-(4-pyrrolidin-1-yl-butyl)-(4S*,7R*)-[4,7-ethenylene-spiro[2.4]heptane]-5,6-dicarboxamide] | 214 | 10000
Cc1cc2ccccc2n1CCCNC(=O)[C@H]1[C@H](C(=O)NCCCCN2CCCC2)[C@H]2C=C[C@@H]1C21CC1 (racemic) [Example 155, (5R*)—N^5-(3-(2-Methyl-1H-indol-1-yl)-propyl)-(6R*)—N^6-(4-pyrrolidin-1-yl-butyl)-(4S*,7R*)-[4,7-ethenylene-spiro[2.4]heptane]-5,6-dicarboxamide] | 91 | > 25000
Cn1c(CCNC(=O)[C@H]2[C@H](C(=O)NCCCCN3CCCC3)[C@H]3C=C[C@@H]2C32CC2)nc2ccccc21 (racemic) [Example 156, (5R*)—N^5-(2-(1-Methyl-1H-benzoimidazol-2-yl)-ethyl)-(6R*)—N^6-(4-pyrrolidin-1-yl-butyl)-(4S*,7R*)-[4,7-ethenylene-spiro[2.4]heptane]-5,6-dicarboxamide] | 623 | > 25000
O=C(NCCCCN1CCCC1)[C@H]1[C@H](C(=O)NCCn2ccc3ccccc32)[C@@H]2C=C[C@H]1C21CC1 (racemic) [Example 157, (5R*)—N^5-(2-(1H-Indol-1-yl)-ethyl)-(6R*)—N^6-(4-pyrrolidin-1-yl-butyl)-(4S*,7R*)-[4,7-ethenylene-spiro[2.4]heptane]-5,6-dicarboxamide] | 136 | > 25000
COc1ccccc1CCNC(=O)[C@H]1[C@H](C(=O)NCCCCN2CCCC2)[C@H]2C=C[C@@H]1C21CC1 (racemic) [Example 158, (5R*)—N^5-(2-(2-Methoxy-phenyl)-ethyl)-(6R*)—N^6-(4-pyrrolidin-1-yl-butyl)-(4S*,7R*)-[4,7-ethenylene-spiro[2.4]heptane]-5,6-dicarboxamide] | 204 | > 25000
O=C(CCCN1CCCC1=O)NC[C@H]1[C@H](C(=O)Nc2ccc(Br)cc2)[C@@H]2C=C[C@H]1C21CC1 (racemic) [Example 161, (5R*)—N^5-(4-Bromo-phenyl)-(6R*)-6-[(4-(2-oxo-pyrrolidin-1-yl)-butyrylamino)-methyl]-(4S*,7R*)-[4,7-ethenylene-spiro[2.4]heptane]-5-carboxamide] | 7920 | 47
O=C(Cc1ccccc1Cl)NC[C@H]1[C@H](C(=O)Nc2ccc(Br)cc2)[C@@H]2C=C[C@H]1C21CC1 (racemic) [Example 162, (5R*)—N^5-(4-Bromo-phenyl)-(6R*)-6-[(2-(2-chloro-phenyl)-acetylamino)-methyl]-(4S*,7R*)-[4,7-ethenylene-spiro[2.4]heptane]-5-carboxamide] | 1730 | 61
COCCC(=O)NC[C@H]1[C@H](C(=O)Nc2ccc(Br)cc2)[C@@H]2C=C[C@H]1C21CC1 (racemic) [Example 163, (5R*)—N^5-(4-Bromo-phenyl)-(6R*)-6-[(3-methoxy-propionylamino)-methyl]-(4S*,7R*)-[4,7-ethenylene-spiro[2.4]heptane]-5-carboxamide] | 5680 | 72
CN(C)C(=O)CCC(=O)NC[C@H]1[C@H](C(=O)Nc2ccc(Br)cc2)[C@@H]2C=C[C@H]1C21CC1 (racemic) [Example 164, (5R*)—N^5-(4-Bromo-phenyl)-(6R*)-6-[(3-(N,N-dimethyl-aminocarbonyl)-propionyl-amino)-methyl]-(4S*,7R*)-[4,7-ethenylene-spiro[2.4]heptane]-5-carboxamide] | 6820 | 80
COC(=O)CCCC(=O)NC[C@H]1[C@H](C(=O)Nc2ccc(Br)cc2)[C@@H]2C=C[C@H]1C21CC1 (racemic) [Example 166, (5R*)—N^5-(4-Bromo-phenyl)-(6R*)-6-{[(4-methoxycarbonyl-butanoyl)-amino]-methyl}-(4S*,7R*)-[4,7-ethenylene-spiro[2.4]heptane]-5-carboxamide] | 4710 | 88
CCCCC(=O)NC[C@H]1[C@H](C(=O)Nc2ccc(Br)cc2)[C@@H]2C=C[C@H]1C21CC1 (racemic) [Example 167, (5R*)—N^5-(4-Bromo-phenyl)-(6R*)-6-(pentanoylamino-methyl)-(4S*,7R*)-[4,7-ethenylene-spiro[2.4]heptane]-5-carboxamide] | 3690 | 103
Cc1nc(CC(=O)NC[C@H]2[C@H](C(=O)Nc3ccc(Br)cc3)[C@@H]3C=C[C@H]2C32CC2)c(C)s1 (racemic) [Example 168, (5R*)—N^5-(4-Bromo-phenyl)-(6R*)-6-[(2-(2,5-dimethyl-thiazol-4-yl)-acetylamino)-methyl]-(4S*,7R*)-[4,7-ethenylene-spiro[2.4]heptane]-5-carboxamide] | 862 | 71
O=C(NC[C@H]1[C@H](C(=O)Nc2ccc(Br)cc2)[C@@H]2C=C[C@H]1C21CC1)c1ccnn1-c1ccccc1 (racemic) [Example 169, (5R*)—N^5-(4-Bromo-phenyl)-(6R*)-6-{[(1-phenyl-1H-pyrazole-5-carbonyl)-amino]-methyl}-(4S*,7R*)-[4,7-ethenylene-spiro[2.4]heptane]-5-carboxamide] | 1790 | 112
NC(=O)CCC(=O)NC[C@H]1[C@H](C(=O)Nc2ccc(Br)cc2)[C@@H]2C=C[C@H]1C21CC1 (racemic) [Example 170, (5R*)—N^5-(4-Bromo-phenyl)-(6R*)-6-{[(3-aminocarbonyl-propionyl)-amino]-methyl}-(4S*,7R*)-[4,7-ethenylene-spiro[2.4]heptane]-5-carboxamide] | > 25000 | 114
Cc1ccncc1C(=O)NC[C@H]1[C@H](C(=O)Nc2ccc(Br)cc2)[C@@H]2C=C[C@H]1C21CC1 (racemic) [Example 171, (5R*)—N^5-(4-Bromo-phenyl)-(6R*)-6-{[(4-methyl-pyridine-3-carbonyl)-amino]-methyl}-(4S*,7R*)-[4,7-ethenylene-spiro[2.4]heptane]-5-carboxamide] | 3220 | 118
CC(C)C(=O)NC[C@H]1[C@H](C(=O)Nc2ccc(Br)cc2)[C@@H]2C=C[C@H]1C21CC1 (racemic) [Example 172, (5R*)—N^5-(4-Bromo-phenyl)-(6R*)-6-[(isobutyrylamino)-methyl]-(4S*,7R*)-[4,7-ethenylene-spiro[2.4]heptane]-5-carboxamide] | 4610 | 125
CCN1CCC(C(=O)NC[C@H]2[C@H](C(=O)Nc3ccc(Br)cc3)[C@@H]3C=C[C@H]2C32CC2)CC1 (racemic) [Example 173, (5R*)—N^5-(4-Bromo-phenyl)-(6R*)-6-{[(N-ethyl-piperidine-4-carbonyl)-amino]-methyl}-(4S*,7R*)-[4,7-ethenylene-spiro[2.4]heptane]-5-carboxamide] | 1820 | 131
O=C(CCc1cccnc1)NC[C@H]1[C@H](C(=O)Nc2ccc(Br)cc2)[C@@H]2C=C[C@H]1C21CC1 (racemic) [Example 174, (5R*)—N^5-(4-Bromo-phenyl)-(6R*)-6-[(3-pyridin-3-yl-propionylamino)-methyl]-(4S*,7R*)-[4,7-ethenylene-spiro[2.4]heptane]-5-carboxamide] | 4810 | 136
COCCC(=O)N(C)C[C@H]1[C@H](C(=O)Nc2ccc(Br)cc2)[C@@H]2C=C[C@H]1C21CC1 (racemic) [Example 175, (5R*)—N^5-(4-Bromo-phenyl)-(6R*)-6-{[N-(3-methoxy-propionyl)-N-methyl-amino]-methyl}-(4S*,7R*)-[4,7-ethenylene-spiro[2.4]heptane]-5-carboxamide] | 7210 | 155
O=C(NC[C@H]1[C@H](C(=O)Nc2ccc(Br)cc2)[C@@H]2C=C[C@H]1C21CC1)c1cccc(F)c1Cl (racemic) [Example 176, (5R*)—N^5-(4-Bromo-phenyl)-(6R*)-6-{[(2-chloro-3-fluoro-phenyl-carbonyl)-amino]-methyl}-(4S*,7R*)-[4,7-ethenylene-spiro[2.4]heptane]-5-carboxamide] | 2230 | 158
